# In patent US10821152B2, “Methods, agents and compositions for treatment of inflammatory conditions” (Betanien Hospital, priority 2014, dated 2020):
# “And” between values parts separate entries of the source, which are not always exact repeats. Identical values can stand only once. Non-standard residues stand in square brackets, D forms with d. Residues, ends and D or L forms follow the SMILES beside them. *: point of attachment. dPhe(4-NHCONH2) = NC(=O)Nc1ccc(C[C@@H](N)C(=O)O)cc1; Dihydroorotyl(S) = O=C1C[C@@H](C(=O)*)NC(=O)N1; dPhe(4-Cl) = N[C@H](Cc1ccc(Cl)cc1)C(=O)O; Phe(4-NH2) = Nc1ccc(C[C@H](N)C(=O)O)cc1; d2Nal = N[C@H](Cc1ccc2ccccc2c1)C(=O)O; Lys(iPr) = CC(C)NCCCC[C@H](N)C(=O)O; d3Pal = N[C@H](Cc1cccnc1)C(=O)O
# Tests used:
# Assay type in all cases: in vivo, human
# [1] = test system: patient with ankylosing spondylitis; assay: Treatment of ankylosing spondylitis patient (BASDAI, laboratory variables); conditions: AS patient
# Description: Diagnosed with ankylosing spondylitis in 1984, HLAB27 positive, with repeated iridocyclitis. Used non-steroidal anti-inflammatory drugs previously. They were offered the TNF-alpha inhibitor Golilimumab in 2010. Their disease activity score was 8.9 in October 2010 (see below for explanation of disease activity score) on initiating Golilimumab; by the June 2012 this score had reduced to 6.6, but by May 2013 the effect had worn off and their score was 7.6. May 2013, they initiated Enbrel treatment, but their disease activity increased from 7.6 to 8.3. Due to their poor response to TNF-alpha therapy, they were offered the GnRH antagonist Degarelix in September 2014.
# Disease activity in ankylosing spondylitis is measured by the BASDAI (Bath Ankylosing Spondylitis Disease Activity Index1), has been extensively validated in clinical trials, 2, 3 and is one of the most commonly used outcome measures in clinical trials. This is a componsite index that evaluates fatigue, axial and peripheral pain, stiffness and enthesopathy. Their BASDAI was at 8.7 at baseline. In September 2014 they received their first dose of Degarelix 240 mg sc. By 2 weeks, their BASDAI had reduced to 6.8, and by 6 weeks it had reduced to 5.8. This is the lowest BASDAI score they have ever had since we first started using this method of assessment 4 years ago in 2010. Their morning stiffness lasted 4 hours at baseline, by 6 weeks their morning stiffness had reduced to 2 hours. They had their second dose of Degarelix 80 mg s.c in October 2014. Lumbar flexion and maximum arm abduction were increased after 6 weeks of treatment.
# Response to therapy in clinical practice is defined as improvement of 2 units or 50% on a 0-10 scale of the BASDAI, and expert opinion that the treatment should be continued. Their reduction by 6 weeks was 2.9 units, and 7.1 units with an 82% BASDAI score improvement by 9 weeks, and we shall continue treatment. A BASDAI 50% improvement is defined as a major clinical response. […] For comparison, approximately 50-60% of patients achieve a BASDAI 50 by 12 weeks on TNF inhibitors (4). Their ESR has decreased from 46 mm to 23 mm, which is their lowest ESR reading in 19 years. […] By 9 weeks of GnRH antagonist therapy, their kidney function has normalized, and fasting glucose reduced from 7.4 to 6.5 mmol/L. By 3 months, the effect on their ankylosing spondylitis remained, creatinine was at 98 umol/L, with a glomerular filtration rate of 66 ml/min/1.73 m2 in December 2014.
# [2] = test system: patients with risk factors for cardiovascular disease; assay: Cardiovascular and metabolic risk factors in patients offered Degarelix
# Description: In our patient group who were offered Degarelix, some patients had risk factors for cardiovascular disease, metabolic syndrome, lipidemia or hypoalphalipoproteinemia (low HDL). None of these patients had recently started medications prior to the GnRH antagonist that could explain the changes in blood pressure, HbA1C, fasting glucose or lipids. See Example 1 for patient information.
# [3] = test system: patient with seropositive rheumatoid arthritis; assay: Degarelix with and without Methotrexate in rheumatoid arthritis; conditions: RA patient
# Description: • person with seropositive rheumatoid arthritis with disease duration of 16 years • Fulfilled ACR 2010 classification criteria for rheumatoid arthritis Experimental Treatment and Assessment of Response • Previously failed 3 biologics (Etanercept, Actemra, and Rituximab). Last tried Rituximab November 2013, but increasing disease activity and blood tests (CRP and ESR) during the months thereafter until start of Degarelix 16 Jun. 2014. Concomitantly used stable Methotrexate 10 mg weekly since 1999. • Started Degarelix 240 mg inductions dose 16 Jun. 2014, with 80 mg every 2 weeks thereafter. • Disease activity reduced and they achieved an ACR60 response by 29 Sep. 2014 under the introduction of Degarelix and stable concomitant Methotrexate and Prednisolone. • 3 Oct. 2014 the patient's pulmonary physician stopped Methotrexate treatment due to pleural thickening, and CT imaging supporting lung fibrosis which was suspected to be due to Methotrexate. The patient had dyspnea which resolved once Methotrexate was stopped. • By 21 Nov. 2014, the patients disease activity score had increased from 5.1 (29 Sep. 14) to 5.7 (21 Nov. 2014), due to the discontinuation of Methotrexate.
smiles,measurement,setting,value
CC(=O)N[C@H](Cc1ccc2ccccc2c1)C(=O)N[C@H](Cc1ccc(Cl)cc1)C(=O)N[C@H](Cc1cccnc1)C(=O)N[C@@H](CO)C(=O)N[C@@H](Cc1ccc(NC(=O)[C@@H]2CC(=O)NC(=O)N2)cc1)C(=O)N[C@H](Cc1ccc(NC(N)=O)cc1)C(=O)N[C@@H](CC(C)C)C(=O)N[C@@H](CCCCNC(C)C)C(=O)N1CCC[C@H]1C(=O)N[C@H](C)C(N)=O [Degarelix] (Ac-[d2Nal][dPhe(4-Cl)][d3Pal]S[Phe(4-NH2)](Dihydroorotyl(S))[dPhe(4-NHCONH2)]L[Lys(iPr)]P[dA]-NH2),ASAS response (at least 80% improvement),[1],achieved an ASAS 80
same,CRP,[1]; 10.09.14 (baseline),<5
same,Creatinine (60-105 umol/L),[1]; 10.09.14 (baseline),112↑ umol/L
same,ESR <20 mm,[1]; 10.09.14 (baseline),46 mm and 46↑ mm
same,Glomerular filtration rate (>60 ml/min/1.73 m^2),[1]; 10.09.14 (baseline),56↓ ml/min/1.73 m^2
same,Glucose fasting (4.0-6.0 mmol/L),[1]; 10.09.14 (baseline),7.4 mmol/L
same,Urate (230-480 umol/L),[1]; 10.09.14 (baseline),515 umol/L and 515↑ umol/L
same,CRP,[1]; 10.11.14,<5
same,Creatinine (60-105 umol/L),[1]; 10.11.14,99 µmol/L
same,Glomerular filtration rate (>60 ml/min/1.73 m^2),[1]; 10.11.14,65 ml/min/1.73 m^2
same,Urate (230-480 umol/L),[1]; 10.11.14,426 µmol/L
same,Glucose fasting (4.0-6.0 mmol/L),[1]; 10.11.14 (by 9 weeks),6.5 mmol/L
same,CRP,[1]; 24.09.14,<5
same,Creatinine (60-105 umol/L),[1]; 24.09.14,114↑ umol/L
same,ESR <20 mm,[1]; 24.09.14,31↑ mm
same,Glomerular filtration rate (>60 ml/min/1.73 m^2),[1]; 24.09.14,55↓ ml/min/1.73 m^2
same,Urate (230-480 umol/L),[1]; 24.09.14,512↑ umol/L
same,CRP,[1]; 27.10.14,<5
same,Creatinine (60-105 umol/L),[1]; 27.10.14,111↑ umol/L
same,ESR <20 mm,[1]; 27.10.14,28↑ mm
same,Glomerular filtration rate (>60 ml/min/1.73 m^2),[1]; 27.10.14,56↓ ml/min/1.73 m^2
same,Urate (230-480 umol/L),[1]; 27.10.14,495↑ umol/L
same,Lumbar flexion and maximum arm abduction,[1]; after 6 weeks of treatment,increased
same,BASDAI,[1]; baseline,8.7
same,morning stiffness,[1]; baseline,4 h
same,BASDAI,[1]; by 2 weeks,6.8
same,creatinine,[1]; by 3 months (December 2014),98 µmol/L
same,glomerular filtration rate,[1]; by 3 months (December 2014),66 ml/min/1.73 m2
same,BASDAI,[1]; by 6 weeks,5.8
same,BASDAI reduction,[1]; by 6 weeks,2.9 units
same,morning stiffness,[1]; by 6 weeks,2 h
same,BASDAI reduction,[1]; by 9 weeks,7.1 units
same,BASDAI score improvement,[1]; by 9 weeks,82%
same,kidney function,[1]; by 9 weeks,normalized
same,fasting glucose,"[2]; Patient 1, October 2014",6.3 mmol/L
same,fasting glucose,"[2]; Patient 1, September 2014",6.6 mmol/L
same,metabolic syndrome criteria,"[2]; Patient 1, after degarelix treatment",no longer fulfills the criteria for metabolic syndrome
same,HBA1c (4.3-6.1%),"[2]; Patient 1, at 8 months",5.7%
same,HBA1c (4.3-6.1%),"[2]; Patient 1, baseline",6.4%
same,blood pressure,"[2]; Patient 1, baseline",151/90
same,HBA1c (4.3-6.1%),"[2]; Patient 1, by 2 weeks",6.1%
same,fasting glucose (4.0-6.0),"[2]; Patient 4, 3 months after starting Degarelix",6.6 mmol/L
same,fasting glucose (4.0-6.0),"[2]; Patient 4, April 2014, before Degarelix",8.9 mmol/L
same,fasting glucose (4.0-6.0),"[2]; Patient 4, December 2013, before Degarelix",8.5 mmol/L
same,HBA1c (4.3-6.1%),"[2]; Patient 4, baseline",6.9%
same,HBA1c (4.3-6.1%),"[2]; Patient 4, by 1 month",6.6%
same,HBA1c (4.3-6.1%),"[2]; Patient 4, by 2 months",6.4%
same,HBA1c (4.3-6.1%),"[2]; Patient 4, by 4 months",6.2%
same,fasting glucose (4.0-6.0),"[2]; Patient 4, by 4 months",6.0 mmol/L
same,HBA1c (4.3-6.1%),"[2]; Patient 4, by 12 months",5.9%
same,HDL (1.0-2.7 mmol/L),"[2]; Patient 7, baseline September 2014",0.68 mmol/L
same,HDL (1.0-2.7 mmol/L),"[2]; Patient 7, by 1 week",0.73 mmol/L
same,HDL (1.0-2.7 mmol/L),"[2]; Patient 7, by 2 weeks",0.75 mmol/L
same,HDL (1.0-2.7 mmol/L),"[2]; Patient 7, by 3 weeks",1.13 mmo/L
same,disease activity score,"[3]; 21 Nov. 2014, Degarelix after Methotrexate stopped 3 Oct. 2014",5.7
same,disease activity score,"[3]; 29 Sep. 14, Degarelix with Methotrexate",5.1
same,ACR response,"[3]; by 29 Sep. 2014, with stable concomitant Methotrexate and Prednisolone",ACR60
